Key:
Format in all cases: cell-based
[1] = tested on: LAN-1; assay: MTS cell viability assay, soluble SN-38 on LAN-1 neuroblastoma cells; conditions: LAN-1 cells, 4 hours exposure, viability 4 days later
Protocol: (§1) To determine whether the antitumor activity of the drug was conserved after the manufacturing process of the membranes, the present inventors co-incubated the membranes with neuroblastoma cell lines. In a previous experiment, the present inventors determined the extent to which SN-38 inhibits neuroblastoma. Such experiment was performed by exposing LAN-1, SK-N-BE(2)c and SK-N-AS cell lines to a fresh solution of SN-38 in RPMI, prepared from a stock solution of SN-38, 1 mg/mL in DMSO. Briefly, cells were plated in 96 well plates, 3000 cells per well, in RPMI medium. 24 hours later, the cells were exposed to SN-38 (concentration range 10-0.000001 μM). After 4 hours, the drug was withdrawn and fresh medium was added. The viability of the cell culture was quantified 4 days later, by using the MTS cell viability assay (Promega).
(§2) Each dot represents the mean (±SD) of 3-5 wells.

[2] = tested on: SK-N-BE(2)c; assay: MTS cell viability assay, soluble SN-38 on SK-N-BE(2)c neuroblastoma cells; conditions: SK-N-BE(2)c cells, 4 hours exposure, viability 4 days later
Protocol: as §1, §2

[3] = tested on: SK-N-AS; assay: MTS cell viability assay, soluble SN-38 on SK-N-AS neuroblastoma cells; conditions: 4 hours exposure, viability 4 days later
Protocol: as §1, §2

`CCc1c2c(nc3ccc(O)cc13)-c1cc3c(c(=O)n1C2)COC(=O)[C@]3(O)CC` [SN-38, 7-ethyl-10-hydroxycamptothecin] showed an IC50 [1] of 10 nM, an IC50 [2] of 46 nM and an IC50 [3] of 190 nM.

Reference: patent US9561190B2, “Nonwoven membrane as a drug delivery system” (priority 2012, dated 2017)
